For 18 substances, 3 h FOB score results are on record in the OligoGym collection.

HELM strings list units from the 5' end as sugar, base in round brackets, then linkage (d deoxyribose, r ribose, m 2'-O-methyl, p phosphodiester). Strings are as the collection lists them; they lack the last nucleoside at the 3' end of the tested compound. [moe] = 2'-O-(2-methoxyethyl) (MOE); [sp] = phosphorothioate linkage; [m5C] = 5-methylcytosine

The data set addresses PRNP. The data set can be described thus: mouse, dose not given. To be noted: ASO.

As to “RNA1{[moe]([m5C])[sp].[moe](T)p.[moe]([m5C])p.[moe](T)p.[moe](A)[sp].d(T)[sp].d(G)[sp].d(T)[sp].d(T)[sp].d(T)[sp].d(T)[sp].d([m5C])[sp].d([m5C])[sp].d(A)[sp].d(G)[sp].[moe](T)p.[moe](G)p.[moe]([m5C])[sp].[moe]([m5C])}$$$$ (last 3' nucleoside missing)”, the 3 h FOB score turned out to be 1 score 0-7. In the case of “RNA1{[moe](T)[sp].[moe](G)p.[moe]([m5C])p.[moe](A)p.[moe]([m5C])[sp].d(A)[sp].d([m5C])[sp].d(T)[sp].d(G)[sp].d(A)[sp].d([m5C])[sp].d([m5C])[sp].d(A)[sp].d(T)[sp].d(T)[sp].[moe](T)p.[moe](T)p.[moe](T)[sp].[moe](T)}$$$$ (last 3' nucleoside missing)” it was 1 score 0-7; in that of “RNA1{[moe](G)[sp].[moe](T)p.[moe](A)p.[moe](T)p.[moe](A)[sp].d(A)[sp].d(T)[sp].d(T)[sp].d(T)[sp].d(T)[sp].d(T)[sp].d(T)[sp].d(T)[sp].d(A)[sp].d([m5C])[sp].[moe]([m5C])p.[moe](T)p.[moe](G)[sp].[moe](G)}$$$$ (last 3' nucleoside missing)”, 0 score 0-7.

The substance “RNA1{[moe](T)[sp].[moe](G)p.[moe](T)p.[moe](G)p.[moe]([m5C])[sp].d(T)[sp].d(T)[sp].d(A)[sp].d(T)[sp].d(T)[sp].d(A)[sp].d(T)[sp].d(T)[sp].d([m5C])[sp].d(A)[sp].[moe](T)p.[moe](G)p.[moe](T)[sp].[moe](T)}$$$$ (last 3' nucleoside missing)” gave a 3 h FOB score of 0 score 0-7.

“RNA1{[moe]([m5C])[sp].[moe](T)p.[moe]([m5C])p.[moe](T)p.[moe](A)p.d(T)[sp].d(G)[sp].d(T)[sp].d(T)[sp].d(T)[sp].d(T)[sp].d([m5C])[sp].d([m5C])[sp].d(A)[sp].[moe](G)[sp].[moe](T)p.[moe](G)p.[moe]([m5C])}$$$$ (last 3' nucleoside missing)” showed a 3 h FOB score of 1 score 0-7.

In turn, “RNA1{[moe]([m5C])[sp].[moe](T)p.[moe]([m5C])p.[moe](T)p.d(A)[sp].d(T)[sp].d(G)[sp].d(T)[sp].d(T)[sp].d(T)[sp].d(T)[sp].d([m5C])[sp].d([m5C])[sp].d(A)[sp].[moe](G)p.[moe](T)p.[moe](G)p.[moe]([m5C])[sp].[moe]([m5C])}$$$$ (last 3' nucleoside missing)” yielded a 3 h FOB score of 3.25 score 0-7.

For the substance “RNA1{[moe](T)[sp].[moe](G)p.[moe](G)p.[moe]([m5C])p.[moe](A)p.[moe]([m5C])p.d(T)[sp].d(T)[sp].d(T)[sp].d([m5C])[sp].d(T)[sp].d(T)[sp].d(T)[sp].d(T)[sp].d(T)[sp].d(A)[sp].[moe](T)p.[moe](T)[sp].[moe](T)}$$$$ (last 3' nucleoside missing)”, the 3 h FOB score amounted to 0.25 score 0-7.

“RNA1{[moe]([m5C])[sp].[moe]([m5C])p.[moe](G)p.[moe](T)p.[moe](T)[sp].d([m5C])[sp].d(A)[sp].d(T)[sp].d([m5C])[sp].d(T)[sp].d(T)[sp].d(A)[sp].d(T)[sp].d(T)[sp].d([m5C])[sp].[moe]([m5C])p.[moe]([m5C])p.[moe](A)[sp].[moe](T)}$$$$ (last 3' nucleoside missing)” displayed a 3 h FOB score of 0 score 0-7. In turn, “RNA1{[moe](G)[sp].[moe](G)p.[moe](T)p.[moe](T)p.[moe](A)p.[moe]([m5C])p.d(A)[sp].d(T)[sp].d(A)[sp].d(A)[sp].d(T)[sp].d(G)[sp].d(T)[sp].d(T)[sp].d([m5C])[sp].d(A)[sp].[moe](T)p.[moe](T)[sp].[moe](T)}$$$$ (last 3' nucleoside missing)” had a 3 h FOB score of 3.75 score 0-7. Regarding “RNA1{[moe](T)[sp].[moe](G)p.[moe](G)p.[moe]([m5C])p.[moe](A)[sp].d([m5C])[sp].d(T)[sp].d(T)[sp].d(T)[sp].d([m5C])[sp].d(T)[sp].d(T)[sp].d(T)[sp].d(T)[sp].d(T)[sp].[moe](A)p.[moe](T)p.[moe](T)[sp].[moe](T)}$$$$ (last 3' nucleoside missing)”, the 3 h FOB score was found to be 0 score 0-7.

“RNA1{[moe](G)[sp].[moe](T)p.[moe]([m5C])p.[moe](A)p.d(T)[sp].d(A)[sp].d(A)[sp].d(T)[sp].d(T)[sp].d(T)[sp].d(T)[sp].d([m5C])[sp].d(T)[sp].d(T)[sp].[moe](A)p.[moe](G)p.[moe]([m5C])p.[moe](T)[sp].[moe](A)}$$$$ (last 3' nucleoside missing)” came in with a 3 h FOB score of 0.25 score 0-7. “RNA1{[moe](G)[sp].[moe](T)p.[moe](T)p.[moe]([m5C])p.[moe](T)[sp].d(A)[sp].d(A)[sp].d(T)[sp].d(T)[sp].d(T)[sp].d(T)[sp].d(A)[sp].d(G)[sp].d(A)[sp].d(T)[sp].[moe]([m5C])p.[moe](A)p.[moe](T)[sp].[moe](T)}$$$$ (last 3' nucleoside missing)” gave a 3 h FOB score of 2 score 0-7. In the case of “RNA1{[moe]([m5C])[sp].[moe](G)[sp].[moe](T)p.[moe]([m5C])p.[moe]([m5C])p.[moe](A)p.[moe](T)p.d(T)[sp].d(T)[sp].d(T)[sp].d([m5C])[sp].d(T)[sp].d(G)[sp].d(T)[sp].d(G)[sp].d([m5C])[sp].d(T)[sp].[moe](T)p.[moe](T)}$$$$ (last 3' nucleoside missing)” it was 5.5 score 0-7; in that of “RNA1{[moe](G)[sp].[moe](G)p.[moe](T)p.[moe](T)p.[moe](A)[sp].d(G)[sp].d([m5C])[sp].d(T)[sp].d(T)[sp].d(T)[sp].d(T)[sp].d(T)[sp].d(T)[sp].d(T)[sp].d([m5C])[sp].[moe](A)p.[moe]([m5C])p.[moe](T)[sp].[moe](G)}$$$$ (last 3' nucleoside missing)”, 4.75 score 0-7; in that of “RNA1{[moe]([m5C])[sp].[moe](T)p.[moe](G)p.[moe](T)p.[moe](T)[sp].d(A)[sp].d(T)[sp].d(G)[sp].d(T)[sp].d(T)[sp].d(A)[sp].d(T)[sp].d(T)[sp].d(A)[sp].d(T)[sp].[moe](T)p.[moe](G)p.[moe](T)[sp].[moe](T)}$$$$ (last 3' nucleoside missing)”, 3.75 score 0-7. Then “RNA1{[moe](A)[sp].[moe]([m5C])p.[moe](T)p.[moe]([m5C])p.d(T)[sp].d(A)[sp].d(T)[sp].d(G)[sp].d(T)[sp].d(T)[sp].d(T)[sp].d(T)[sp].d([m5C])[sp].d([m5C])[sp].[moe](A)p.[moe](G)p.[moe](T)p.[moe](G)[sp].[moe]([m5C])}$$$$ (last 3' nucleoside missing)”, with 1.5 score 0-7; and “RNA1{[moe](A)[sp].[moe](T)p.[moe]([m5C])p.[moe](A)p.[moe](T)[sp].d(T)[sp].d(T)[sp].d(T)[sp].d(G)[sp].d([m5C])[sp].d([m5C])[sp].d(A)[sp].d(T)[sp].d(T)[sp].d(T)[sp].[moe](A)p.[moe](T)p.[moe]([m5C])[sp].[moe](T)}$$$$ (last 3' nucleoside missing)”, with 3.25 score 0-7.

“RNA1{[moe]([m5C])[sp].[moe](T)p.[moe](A)p.[moe](G)p.[moe](T)[sp].d(A)[sp].d(A)[sp].d(G)[sp].d(A)[sp].d(A)[sp].d([m5C])[sp].d(T)[sp].d(T)[sp].d(A)[sp].d(T)[sp].[moe]([m5C])p.[moe]([m5C])p.[moe]([m5C])[sp].[moe](A)}$$$$ (last 3' nucleoside missing)” had a 3 h FOB score of 0 score 0-7.
